Drawing on PubChem BioAssay (NCI), this text covers GI50 and TGI for twelve molecules.

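Values below derive from 48-hour exposures of cells grown in 96-well plates, with endpoints linearly interpolated between the two concentrations bracketing the appropriate inhibition level. GI50 = concentration required for 50% inhibition of growth. TGI: total growth inhibition.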

Test in all cases: NCI tumour cell line growth inhibition, 48 h
Experiment [1] relates to BT-549 breast.
For experiment [2], the system named is CCRF-CEM leukemia.
Experiment [3] concerns LOX IMVI melanoma.
The test system of experiment [4] is MCF7 breast.
Experiment [5] relates to MDA-MB-435.
Experiment [6] relates to MOLT-4 leukemia.
Experiment [7] relates to RPMI-8226 leukemia.
Experiment [8] concerns SK-MEL-2 melanoma.
Experiment [9] relates to SK-MEL-28 melanoma.
For experiment [10], the system named is U251 CNS.

Regarding `CC1(C)C(=O)/C(=C\c2cccnc2)C[C@]2(C)[C@H]3CC[C@@H]4[C@@H](C(=O)/C=C/c5ccncc5)CC[C@@]4(C)[C@]3(C)CC[C@@H]12`, the GI50 is 1.59 µM in [1]; 1.79 µM in experiment [2]; 1.38 µM in [3]; 0.804 µM in experiment [4]; 1.98 µM in experiment [5]; 2.78 µM in experiment [6]. In addition, the GI50 is 1.21 µM in [7], 1.93 µM in experiment [8], 1.98 µM in experiment [9] and 1.62 µM in experiment [10]. Moreover, the TGI came out at 3.35 µM in [1]; 8.53 µM in experiment [2]; 2.95 µM in [3]; 4.62 µM in [4]; 4.77 µM in experiment [5]; 10.4 µM in experiment [6]. The TGI in [7] amounted to 5.43 µM; in experiment [8] it was 4.38 µM; in experiment [9], 3.97 µM; in experiment [10], 3.03 µM.
Turning to `Cc1ccc([C@]2(C)CC[C@H](C)/C2=C\Br)c(O)c1`, the GI50 in [1] was 5.4 µM; in experiment [2] it was 6.77 µM; in [3] it was 8.21 µM; in experiment [4], 4.52 µM; in [5], 1.86 µM; in experiment [6] it was 4.17 µM. Further, the GI50 in experiment [7] was 3.21 µM; in [8], 2.82 µM; in experiment [9] it was 5.07 µM; in experiment [10], 4.03 µM. In addition, the TGI in experiment [1] turned out to be 19.3 µM; in [2], 35.6 µM; in [3], 22.3 µM; in experiment [4] it was 17.9 µM; in experiment [5], 4.82 µM; in [6], 16.8 µM. In addition, the TGI was 24.7 µM in experiment [7], 17.9 µM in experiment [8], 17.6 µM in experiment [9] and 14.4 µM in experiment [10].
As to `CC[C@H](C)C(=O)O[C@H]1C[C@H](O)C=C2C=C[C@H](C)[C@H](CC[C@@H](O)C[C@@H](O)CC(=O)O)[C@H]21`, the GI50 in experiment [1], in [2], in experiment [3], in [4], in experiment [5] and in [6] was over 100 µM in each case. Besides, the GI50 in experiment [7], in experiment [8], in experiment [9] and in experiment [10] was over 100 µM in each case. Also, the TGI in experiment [1], in experiment [2], in experiment [3], in experiment [4], in experiment [5] and in [6] was over 100 µM each time. In addition, the TGI in experiment [7], in experiment [8], in experiment [9] and in [10] was over 100 µM in each case.
For `CC(=C/c1ccccc1)/C=C1/NC(=S)N(/C=C2\C(=O)Oc3ccccc3C2=O)C1=O`, in [1], the GI50 was 36.8 µM. For the same molecule, the TGI in [1], in experiment [2], in experiment [3], in [4], in experiment [5] and in experiment [6] was over 100 µM throughout. Besides, the TGI in experiment [7], in [8], in experiment [9] and in experiment [10] was over 100 µM each time.
On to `Cn1cc(C2=C(N3CCOCC3)C(=O)NC2=O)c2ccccc21`, for which the GI50 in experiment [1], in experiment [2], in experiment [3], in [4], in experiment [5] and in experiment [6] was over 25 µM throughout. The GI50 in experiment [7], in experiment [8], in [9] and in experiment [10] was over 25 µM each time. The TGI in [1], in experiment [2], in [3], in experiment [4], in experiment [5] and in [6] was over 25 µM throughout. Also, the TGI in experiment [7], in experiment [8], in [9] and in experiment [10] was over 25 µM in each case.
For the molecule `Oc1c(CN2CCN(c3ccccc3)CC2)cc(Br)c2cccnc12`, the TGI in experiment [1] is over 100 µM; in [2], over 100 µM; in experiment [3], 17 µM; in experiment [4], over 100 µM; in experiment [5], over 100 µM; in experiment [6], 6.15 µM. Also, the TGI was over 40.4 µM in experiment [7], 42 µM in experiment [8], over 100 µM in experiment [9] and 7.87 µM in experiment [10].
`O=C(O)c1cc2ccccc2c2c1C(=O)c1ccccc1-2`: the TGI in [1], in experiment [2], in [3], in [4], in [5] and in experiment [6] was over 100 µM in each case. Also, the TGI in experiment [7], in [8], in experiment [9] and in experiment [10] was over 100 µM in each case.
As for `Cc1cc(C(=O)c2ccccc2)c(C)c2c1[nH]c1ccc(Cl)cc12`, the GI50 is 0.0941 µM in experiment [1]; 0.046 µM in experiment [2]; 0.0642 µM in experiment [3]; 0.0361 µM in experiment [4]; 0.0286 µM in experiment [5]; 0.103 µM in [6]. Further, the GI50 in experiment [7] was 0.0581 µM; in experiment [8], 0.0829 µM; in [9], 3.64 µM; in experiment [10] it was 0.0612 µM. Also, the TGI in experiment [1] is 3.56 µM; in experiment [2] it was over 100 µM; in experiment [3], 10.3 µM; in [4] it was 17.9 µM; in experiment [5] it was 0.321 µM; in [6], over 54.2 µM. In addition, the TGI turned out to be 22 µM in [7], 29.2 µM in [8], 72.3 µM in experiment [9] and 16.2 µM in experiment [10].
With `CC(C)(C)c1ccc(NS(=O)(=O)c2ccc3nc(NC(=O)c4cnccn4)[nH]c3c2)cc1`, the GI50 in [1] is 6.15 µM; in [2] it was 3.2 µM; in experiment [3] it was 2.61 µM; in [4], 0.715 µM; in experiment [5], 0.346 µM; in experiment [6], 5 µM. Moreover, the GI50 in experiment [7] is 4.51 µM; in [8], 4.56 µM; in experiment [9], 3.57 µM; in [10], 3.96 µM. The TGI in experiment [1] was 22.3 µM; in [2] it was over 100 µM; in [3], 15.4 µM; in experiment [4], 13.4 µM; in experiment [5], 1.53 µM; in [6] it was 57.4 µM. Also, the TGI in experiment [7] was over 100 µM; in experiment [8] it was 19 µM; in [9] it was 17.5 µM; in experiment [10], 19.6 µM.
`Cc1ccc(-c2cc(O)c(-c3ccc(C)cc3C)cc2O)c(C)c1`: the GI50 in experiment [1] is 7.56 µM; in experiment [2], 3.65 µM; in [3] it was 1.92 µM; in [4] it was 3.74 µM; in experiment [5], 6.98 µM; in experiment [6], 6.23 µM. Moreover, the GI50 in experiment [7] was 4.93 µM; in experiment [8], 15.4 µM; in experiment [9], 10.8 µM; in experiment [10], 2.32 µM. The TGI in experiment [1] is 26.4 µM; in experiment [2] it was over 100 µM; in experiment [3], 17.2 µM; in experiment [4] it was 23.1 µM; in experiment [5] it was 45.1 µM; in experiment [6], over 100 µM. Further, the TGI came to 55 µM in [7], 30.1 µM in experiment [8], 25.5 µM in experiment [9] and 17.3 µM in experiment [10].
For `O=C(CCc1ccc(O)cc1)N/N=C/c1cc(Br)ccc1O`, the GI50 is 4.19 µM in experiment [1]; 2.5 µM in [2]; 2.07 µM in experiment [3]; 3.31 µM in experiment [4]; 6.31 µM in experiment [5]; 2.41 µM in experiment [6]. The GI50 was 3.57 µM in [7], 5.28 µM in [8], 5.72 µM in experiment [9] and 3.2 µM in experiment [10]. In addition, the TGI in experiment [1] was 44.8 µM; in experiment [2], 12.6 µM; in [3], 16.8 µM; in experiment [4], 90.2 µM; in experiment [5], over 100 µM; in experiment [6] it was 11.2 µM. Also, the TGI in experiment [7] was 33.3 µM; in experiment [8] it was 38.3 µM; in experiment [9], over 100 µM; in experiment [10], over 100 µM.
As for `N#CC1C=Cc2c(ccc3ccccc23)N1C(=O)c1ccccc1` (stereo unspecified), the GI50 in [1] is 2.29 µM; in experiment [2] it was 0.149 µM; in experiment [3] it was 0.319 µM; in [4], 0.0413 µM; in experiment [5] it was 0.0383 µM; in experiment [6], 0.421 µM. The GI50 in experiment [7] was 0.39 µM; in [8], 4.61 µM; in [9], 0.723 µM; in experiment [10], 0.387 µM. Besides, the TGI in experiment [1] was over 60.1 µM; in [2], over 69.9 µM; in experiment [3], over 100 µM; in experiment [4] it was over 100 µM; in experiment [5], 0.664 µM; in experiment [6], over 100 µM. The TGI in [7] is over 100 µM; in experiment [8], over 60.7 µM; in experiment [9] it was over 100 µM; in [10], over 81.6 µM.
